The target in one data set is Glutamate NMDA receptor. Description: Displacement of [3H]MDL105519 from NMDA receptor glycine site in rat brain homogenate. Format: tissue-based. (Loss of bound radioactivity is the signal in a displacement assay; it reports binding, not function.)
The species entered for data set [1] is Rattus norvegicus. Description: Inhibition of AMPA receptor in rat brain homogenate at 10 uM. Type of data set: tissue-based.
Data set [2] is described as follows: Displacement of [3H]CNQX from AMPA receptor in rat brain homogenate. Format: tissue-based.
The target of data set [3] is T1, Glutamate NMDA receptor (Rattus norvegicus) (UniProt P35439+Q00959+Q00960+Q00961+Q62645+Q8VHN2+Q9R1M7). Description: Inhibition of NMDA receptor glycine site in rat brain homogenate at 100 uM. Format: tissue-based.
Data set [4] addresses T1, Glutamate NMDA receptor (Rattus norvegicus). Nature of the data set: Inhibition of NMDA receptor glycine site in rat brain homogenate at 10 uM. Format: tissue-based.
In data set [5] the test system is Mus musculus. Description: Anticonvulsant activity in po dosed OF1 mouse assessed as inhibition of electroshock-induced seizures administered 1 hr before electroshock challenge. Format: functional.
Data set [6] deals with Mus musculus. Nature of the data set: Anticonvulsant activity in OF1 mouse assessed as inhibition of electroshock-induced seizures at 30 mg/kg, po administered 1 hr before electroshock challenge. Type of data set: functional.
For data set [7], the system named is Mus musculus. Nature of the data set: Anticonvulsant activity in OF1 mouse assessed as inhibition of electroshock-induced seizures at 30 mg/kg, ip administered 1 hr before electroshock challenge. Type of data set: functional. The note with it: route intraperitoneal.
Data set [8] relates to Mus musculus. Description: Anticonvulsant activity in po dosed DBA2 mouse assessed as inhibition of sound-induced seizures. Format: functional, organism-based.
The target of data set [9] is Glutamate receptor 2 (Homo sapiens) (UniProt P42262). Description: Binding affinity to human GluA2 by X-ray crystallography.
Glutamate receptor 2 (Homo sapiens), sequence (P42262 whole entry): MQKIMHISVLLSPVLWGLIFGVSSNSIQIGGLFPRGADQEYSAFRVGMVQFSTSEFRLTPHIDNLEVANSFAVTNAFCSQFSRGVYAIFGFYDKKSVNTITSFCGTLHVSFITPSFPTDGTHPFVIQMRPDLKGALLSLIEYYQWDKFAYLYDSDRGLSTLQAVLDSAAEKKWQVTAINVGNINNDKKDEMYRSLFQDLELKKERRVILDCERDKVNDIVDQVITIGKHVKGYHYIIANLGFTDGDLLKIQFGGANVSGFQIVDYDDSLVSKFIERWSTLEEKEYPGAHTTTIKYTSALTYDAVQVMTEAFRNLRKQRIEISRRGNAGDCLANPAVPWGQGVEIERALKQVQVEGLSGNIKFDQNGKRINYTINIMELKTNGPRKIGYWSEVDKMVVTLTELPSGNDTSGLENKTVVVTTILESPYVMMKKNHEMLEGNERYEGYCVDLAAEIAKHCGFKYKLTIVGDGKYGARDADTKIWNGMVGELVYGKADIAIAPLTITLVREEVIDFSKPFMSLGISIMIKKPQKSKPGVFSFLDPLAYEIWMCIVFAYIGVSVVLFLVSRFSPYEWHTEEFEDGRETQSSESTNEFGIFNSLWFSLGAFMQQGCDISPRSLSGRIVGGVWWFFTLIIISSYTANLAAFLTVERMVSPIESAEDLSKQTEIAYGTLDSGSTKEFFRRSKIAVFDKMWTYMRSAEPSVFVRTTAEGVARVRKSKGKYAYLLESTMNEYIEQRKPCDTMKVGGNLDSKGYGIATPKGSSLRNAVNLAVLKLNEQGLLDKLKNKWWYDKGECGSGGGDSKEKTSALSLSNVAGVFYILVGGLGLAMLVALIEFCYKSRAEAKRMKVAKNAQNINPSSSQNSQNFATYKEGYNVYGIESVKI
The species entered for data set [10] is Rattus norvegicus. Description: Inhibition of AMPA receptor in rat brain homogenate at 100 uM. Type of data set: tissue-based.
Data set [11] in a line: Dissociation constant, pKa of the compound. Format: physicochemical.

Activity calls are given as the source filed them. The rule behind the calls is not given here.

For the compound `CS(=O)(=O)Nn1c(=O)[nH]c2cc(S(C)(=O)=O)ccc2c1=O`, on Glutamate NMDA receptor, the IC50 (as a rule, the concentration that gives 50% inhibition) is over 100 µM. For the same compound, the inhibition – broadly, how much of the control response was suppressed – in the data set listed under Rattus norvegicus [1] was 42%.
`CS(=O)(=O)Nn1c(=O)[nH]c2ccc(Cl)cc2c1=O` showed an IC50 in data set [2] of 34 µM. The inhibition in data set [3] stood at 50%.
`CS(=O)(=O)Nn1c(=O)[nH]c2cc(C#N)ccc2c1=O` had an inhibition in data set [4] of 28%. For the same compound, in [2], the IC50 stood at 0.75 µM.
The corresponding values for `CS(=O)(=O)Nn1c(=O)[nH]c2cc([N+](=O)[O-])ccc2c1=O` are 16% and 1.2 µM.
Regarding `CS(=O)(=O)Nn1c(=O)[nH]c2c(Cl)cccc2c1=O`, the IC50 in data set [2] was over 100 µM. In addition, in data set [3], the inhibition is 37%.
In [4], `CS(=O)(=O)Nn1c(=O)[nH]c2cc(C(F)(F)F)ccc2c1=O` gave an inhibition of 13%. For the same compound, the IC50 on Glutamate NMDA receptor is 17.8 µM; in data set [2] it was 0.92 µM. Further, in the data set with Mus musculus [5], the ED50 – broadly, the dose that gives a 50% effect, or the effect in half of the subjects – worked out at 54 mg/kg.
The compound `CS(=O)(=O)Nn1c(=O)[nH]c2cccc(Cl)c2c1=O` registered an IC50 in [2] of 29 µM. Also, the inhibition in [3] was 34%.
The compound `COc1ccc2c(=O)n(NS(C)(=O)=O)c(=O)[nH]c2c1` gave an inhibition in data set [4] of 22%. The compound also returned an IC50 in data set [2] of 3.7 µM. In addition, the inhibition in vivo (in general, how much of the control response was suppressed) at 30 mg/kg in the data set on Mus musculus [6] came to 60%.
With `CS(=O)(=O)Nn1c(=O)[nH]c2cc(CCc3ccccc3)ccc2c1=O`, in data set [4], the inhibition stood at 26%. In data set [2], this compound had an IC50 of 1.1 µM.
In the same order, the values of `CS(=O)(=O)Nn1c(=O)[nH]c2cc(Br)ccc2c1=O` are 49% and 2.2 µM.
In the case of `CCc1ccc2c(=O)n(NS(C)(=O)=O)c(=O)[nH]c2c1`, in [2], the IC50 amounted to 3 µM. Further, the ED50 with Mus musculus [5] is 16 mg/kg.
In the case of `CS(=O)(=O)Nn1c(=O)[nH]c2cc([N+](=O)[O-])c(-n3ccnc3)cc2c1=O`, in the data set on Mus musculus [7], the inhibition in vivo at 30 mg/kg was determined as 40%. Besides, the inhibition in data set [4] amounted to 24%. The IC50 in data set [2] was determined as 0.082 µM. Also, the inhibition entry in the data set with Mus musculus [8] and in the data set on Mus musculus [5] was “inactive” each time. Also, the outcome in [9] was Active.
`CS(=O)(=O)Nn1c(=O)[nH]c2cc(C3CCCC3)ccc2c1=O` came in with an inhibition in the data set filed under Rattus norvegicus [1] of 25%.
In the data set listed under Rattus norvegicus [1], `CS(=O)(=O)Nn1c(=O)[nH]c2cc(C(=O)O)ccc2c1=O` gave an inhibition of 0%.
In the case of `Cn1cnc(S(=O)(=O)Nn2c(=O)[nH]c3cc(Cl)ccc3c2=O)c1`, the IC50 in data set [2] was found to be 1.6 µM.
In the case of `O=c1[nH]c2cc(Cl)ccc2c(=O)n1NS(=O)(=O)Cc1ccccc1`, the figures for the IC50 (on Glutamate NMDA receptor; in [2]) were 0.21 µM and 2.9 µM, respectively.
`CN(n1c(=O)[nH]c2cc(Cl)ccc2c1=O)S(C)(=O)=O`: the inhibition worked out at 12% in the data set listed under Rattus norvegicus [10] and 18% in data set [3].
For `CS(=O)(=O)Nn1c(=O)[nH]c2cc(Cl)ccc2c1=O`, the inhibition in data set [4] came to 32%. The IC50 in [2] is 2.4 µM. Also, the pKa (as a rule, the pH at which an ionisable group is half protonated) in data set [11] worked out at 6.9. Also, the ED50 in the data set on Mus musculus [5] came out at 23 mg/kg.
In the case of `CS(=O)(=O)Nn1c(=O)[nH]c2cc(-c3ccccc3)ccc2c1=O`, the inhibition (in the data set filed under Rattus norvegicus [1]; in [3]) was 36% in each case.
`CCS(=O)(=O)Nn1c(=O)[nH]c2cc(Cl)ccc2c1=O`: the results for the IC50 (on Glutamate NMDA receptor; in data set [2]) were 35 µM and 2.3 µM, respectively.
As for `CC(C)(C)c1ccc2c(=O)n(NS(C)(=O)=O)c(=O)[nH]c2c1`, the results for the IC50 (at Glutamate NMDA receptor; in [2]) were over 100 µM and 4.9 µM, respectively. Also, the ED50 in the data set on Mus musculus [5] amounted to 29.5 mg/kg.
Consider `CS(=O)(=O)Nn1c(=O)[nH]c2cc(F)ccc2c1=O`, for which, in data set [4], the inhibition stood at 17%. The IC50 in data set [2] was 8.2 µM.
Take `C=Cc1ccc2c(=O)n(NS(C)(=O)=O)c(=O)[nH]c2c1`: the values for the IC50 (at Glutamate NMDA receptor; in data set [2]) were over 10 µM and 1.9 µM, respectively.
In the same order, the values of `CS(=O)(=O)Nn1c(=O)[nH]c2cc(Cl)c(-n3ccnc3)cc2c1=O` are 17.2 µM and 0.52 µM.
In the same order, the values of `O=c1[nH]c2cc(Cl)ccc2c(=O)n1NS(=O)(=O)c1ccccc1` are 9.3 µM and 4.9 µM.
As for `CS(=O)(=O)Nn1c(=O)[nH]c2ccccc2c1=O`, the IC50 in data set [2] turned out to be 57 µM. The same compound gave an inhibition in data set [3] of 48%.
Take `Cn1c(=O)n(NS(C)(=O)=O)c(=O)c2ccc(Cl)cc21`: the inhibition in the data set listed under Rattus norvegicus [10] amounted to 45%; in [3], 36%.
Turning to `Cc1ccc2c(=O)n(NS(C)(=O)=O)c(=O)[nH]c2c1`, the inhibition in data set [4] was 13%. In [2], this compound registered a half-maximal inhibitory concentration (IC50) of 9.7 µM. In addition, the ED50 in the data set with Mus musculus [5] came out at 9 mg/kg.

The values are drawn from ChEMBL document CHEMBL1777694, “Quinazolinedione sulfonamides: a novel class of competitive AMPA receptor antagonists with oral activity” (Bioorg Med Chem Lett, 2011).
